Experiments:
Type in all cases: in vivo
Design in all cases: key: 0: no effect; 10-25% kill; 26-35% kill; 36-45% kill; 46-55% kill; 56-65% kill; 66-75% kill; 76-85% kill; 86-99% kill; 9: 100% kill
[1] = system: Spodoptera eridania, 3rd instar larvae, southern armyworm; test: Southern armyworm 3rd instar test, dipped limabean leaf; conditions: for ARMYWORM Day 3: rating at 3 days; for ARMYWORM Day 5: rating at 5 days
How it was run: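 Compound dissolved in 35% acetone/water at 10,000 ppm stock, diluted with water. Sieva limabean leaves dipped 3 s, dried, and exposed to ten 3rd instar larvae on damp filter paper. Mortality, reduced feeding and molting interference scored at 3 and 5 days on a rating scale.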

[2] = system: Empoasca abrupta, adult, western potato leafhopper; test: Western potato leafhopper contact test, dipped limabean leaf
How it was run: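 Sieva limabean leaf dipped 3 s in compound solution (diluted in water from 10,000 ppm stock in 35% acetone), dried, and infested with about 10 adult leafhoppers on moist filter paper. Mortality counted after 2 days and scored on a rating scale.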

[3] = system: Aphis fabae, mixed instar, bean aphid; test: Bean aphid spray test on nasturtium; conditions: 100 ppm
How it was run: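 Compound dissolved at 10,000 ppm in 35% acetone/water, then water-diluted. Nasturtium plants (~5 cm) infested with 100-200 aphids one day before spraying to full coverage on a turntable; mortality estimated after 2 days on a rating scale.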

[4] = system: Tetranychus urticae (OP-resistant strain), 2-spotted spider mite; test: 2-spotted spider mite test, dipped infested limabean plants
How it was run: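 Mite-infested Sieva limabean plants (OP-resistant strain, ~100 mites per leaf, transferred ~2 h earlier) dipped 3 s with agitation in compound solution (10,000 ppm stock in 35% acetone/water, diluted with water). Mortality counted at 2 days; egg and nymph mortality assessed at 5 days; rated on a scale.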

[5] = 10 ppm, contact, rating scale 0-9
[6] = 100 ppm, contact, rating scale 0-9
[7] = 10 ppm, adult mites, rating scale 0-9
[8] = 300 ppm, adult mites, rating scale 0-9
[9] = 300 ppm, mite eggs, rating scale 0-9
[10] = 300 ppm, mite nymphs, rating scale 0-9
[11] = 10 ppm, mortality rating after 2 days
[12] = 100 ppm, mortality rating after 2 days
[13] = spray, mortality rating after 2 days
[14] = 10 ppm, mite nymphs, rating scale 0-9

Row | Structure (SMILES) | ARMYWORM Day 3 ([1]; 10 ppm) | ARMYWORM Day 5 ([1]; 10 ppm) | ARMYWORM Day 3 ([1]; 100 ppm) | ARMYWORM Day 5 ([1]; 100 ppm) | ARMYWORM Day 3 ([1]; 1000 ppm) | ARMYWORM Day 5 ([1]; 1000 ppm) | LEAFHOPPER Contact [2, 5] | LEAFHOPPER Contact [2, 6] | APHIDS ([3]; rating scale 0-9) | OP-RESISTANT MITES Adult [4, 8] | OP-RESISTANT MITES Egg [4, 9] | OP-RESISTANT MITES Nymph [4, 10] | further results
1 | CCOC(=S)SCn1c(-c2ccc(Cl)cc2)c(C#N)c(Br)c1C(F)(F)F [Example 29] | 9 (100% kill) | 9 (100% kill) | 9 (100% kill) | 9 (100% kill) | 9 (100% kill) | 9 (100% kill) | 9 (100% kill) | 9 (100% kill) | 0 | 9 (100% kill) | 0 | 0 | OP-RESISTANT MITES Adult [4, 7]: 9 (100% kill); OP-RESISTANT MITES Egg ([4]; 10 ppm, mite eggs, rating scale 0-9): 9 (100% kill); OP-RESISTANT MITES Adult ([4]; 100 ppm, adult mites, rating scale 0-9): 9 (100% kill); OP-RESISTANT MITES Egg ([4]; 100 ppm, mite eggs, rating scale 0-9): 9 (100% kill)
2 | CN=C(NC)SCn1c(Cl)c(C#N)c(Cl)c1-c1ccc(Cl)c(Cl)c1 [Example 19] | 0 | 0 | 9 (100% kill) | 9 (100% kill) | 9 (100% kill) | 9 (100% kill) | 0 | 9 (100% kill) | 0 | 5 (56-65% kill) | 0 | 0 | –
3 | CSCn1c(Br)c(Br)c(C#N)c1-c1ccc(C(F)(F)F)cc1 [Example 44] | 0 | 0 | 9 (100% kill) | 9 (100% kill) | 9 (100% kill) | 9 (100% kill) | – | – | – | – | – | – | LEAFHOPPER Contact [2, 11]: 0; LEAFHOPPER Contact [2, 12]: 7 (76-85% kill); APHIDS [3, 13]: 0; OP-RESISTANT MITES Adult [4, 11]: 0; OP-RESISTANT MITES Egg ([4]; 10 ppm, rating after 5 days): 0; OP-RESISTANT MITES Egg ([4]; 100 ppm, rating after 5 days): 7 (76-85% kill); OP-RESISTANT MITES Nymph ([4]; 100 ppm, rating after 5 days): 0; OP-RESISTANT MITES Egg ([4]; 300 ppm, rating after 5 days): 0
4 | CC1(C)CN=C(SCn2c(-c3ccc(Cl)cc3)c(C#N)c(Br)c2C(F)(F)F)NC1 [Example 10] | 0 | 0 | 9 (100% kill) | 9 (100% kill) | 9 (100% kill) | 9 (100% kill) | 0 | 7 (76-85% kill) | 0 | 0 | 0 | 0 | –
5 | CCOC(=S)SCn1c(Cl)c(C#N)c(Cl)c1-c1ccc(Cl)c(Cl)c1 [Example 37] | 9 (100% kill) | 9 (100% kill) | 9 (100% kill) | 9 (100% kill) | 9 (100% kill) | 9 (100% kill) | – | 6 (66-75% kill) | 0 | – | 0 | 0 | OP-RESISTANT MITES Adult [4, 7]: 0; OP-RESISTANT MITES Nymph [4, 14]: 4 (46-55% kill)
6 | CSCn1c(-c2ccc(Cl)cc2)c(C#N)c(Br)c1C(F)(F)F [Example 25] | 0 | 0 | 9 (100% kill) | 9 (100% kill) | 9 (100% kill) | 9 (100% kill) | – | – | – | – | – | – | LEAFHOPPER Contact [2, 11]: 0; LEAFHOPPER Contact [2, 12]: 9 (100% kill); APHIDS [3, 13]: 0; OP-RESISTANT MITES Adult ([4]; 300 ppm, mortality rating after 2 days): 7 (76-85% kill); OP-RESISTANT MITES Egg ([4]; 300 ppm, rating after 5 days): 0; OP-RESISTANT MITES Nymph ([4]; 300 ppm, rating after 5 days): 0
7 | N#Cc1c(Br)c(Br)n(CSC2=NCCCN2)c1Br [Example 13] | – | – | 0 | – | 9 (100% kill) | – | – | 0 | 0 | 5 (56-65% kill) | 0 | 0 | –
8 | CCOC(=S)SCn1c(-c2ccc(Cl)c(Cl)c2)c(Br)c(C(F)(F)F)c1C(F)(F)F [Example 35] | 9 (100% kill) | 9 (100% kill) | 9 (100% kill) | 9 (100% kill) | 9 (100% kill) | 9 (100% kill) | 9 (100% kill) | 9 (100% kill) | 0 | – | 0 | 0 | OP-RESISTANT MITES Nymph [4, 14]: 0
9 | N#Cc1c(Cl)c(C(F)(F)F)n(CSC2=NCCN2)c1-c1ccc(Cl)cc1 [Example 4] | 9 (100% kill) | 9 (100% kill) | 9 (100% kill) | 9 (100% kill) | 9 (100% kill) | 9 (100% kill) | – | – | – | – | – | – | LEAFHOPPER Contact [2, 11]: 0; LEAFHOPPER Contact [2, 12]: 9 (100% kill); APHIDS [3, 13]: 0; OP-RESISTANT MITES Adult [4, 11]: 0; OP-RESISTANT MITES Egg ([4]; 10 ppm, rating after 5 days): 0; OP-RESISTANT MITES Nymph ([4]; 10 ppm, rating after 5 days): 0; OP-RESISTANT MITES Egg ([4]; 100 ppm, rating after 5 days): 0; OP-RESISTANT MITES Nymph ([4]; 100 ppm, rating after 5 days): 0; OP-RESISTANT MITES Egg ([4]; 300 ppm, rating after 5 days): 9 (100% kill)
10 | N#Cc1c(Br)c(C(F)(F)F)n(CSC2=NCCS2)c1-c1ccc(Cl)cc1 [Example 16] | 9 (100% kill) | 9 (100% kill) | 9 (100% kill) | 9 (100% kill) | 9 (100% kill) | 9 (100% kill) | 9 (100% kill) | 9 (100% kill) | 8 (86-99% kill) | 0 | 0 | 0 | –
11 | CN=C(NC)SCn1c(Cl)c(Cl)c(C#N)c1-c1ccc(Cl)c(Cl)c1 [Example 15] | 9 (100% kill) | 9 (100% kill) | 9 (100% kill) | 9 (100% kill) | 9 (100% kill) | 9 (100% kill) | 0 | 6 (66-75% kill) | 0 | 0 | 0 | 0 | –
